Results on one compound are retold here after publication PMC6443962, “Anti-nociceptive and Anti-inflammatory Activities of Asparacosin A Involve Selective Cyclooxygenase 2 and Inflammatory Cytokines Inhibition: An in-vitro, in-vivo, and in-silico Approach” (Frontiers in Immunology, 2019).

The target of experiment [1] is T1, COX-1 (cyclooxygenase 1, ovine) (Ovis aries, UniProt P05979).
T1 construct: gene PTGS1
T1 sequence (P05979 25-600): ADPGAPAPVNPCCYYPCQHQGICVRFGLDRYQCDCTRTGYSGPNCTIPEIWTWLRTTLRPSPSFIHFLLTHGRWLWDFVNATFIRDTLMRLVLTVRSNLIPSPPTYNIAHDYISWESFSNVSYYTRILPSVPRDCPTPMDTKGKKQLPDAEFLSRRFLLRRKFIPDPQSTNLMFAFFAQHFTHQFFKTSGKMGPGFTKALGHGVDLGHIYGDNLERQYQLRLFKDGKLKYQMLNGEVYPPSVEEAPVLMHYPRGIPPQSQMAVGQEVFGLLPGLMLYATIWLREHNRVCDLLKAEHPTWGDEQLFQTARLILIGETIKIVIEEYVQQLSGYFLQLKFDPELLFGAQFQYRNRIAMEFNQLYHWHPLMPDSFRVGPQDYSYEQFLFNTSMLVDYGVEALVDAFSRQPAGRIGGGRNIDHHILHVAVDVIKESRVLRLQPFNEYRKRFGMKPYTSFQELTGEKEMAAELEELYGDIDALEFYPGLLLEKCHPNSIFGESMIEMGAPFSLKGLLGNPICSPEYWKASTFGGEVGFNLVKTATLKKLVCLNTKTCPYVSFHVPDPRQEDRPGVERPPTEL
Description: colorimetric COX inhibitor screening assay (Cayman kit […]). It is filed as biochemical.

Experiment [2] concerns the target T2, COX-2 (cyclooxygenase 2, human recombinant) (Homo sapiens, UniProt P35354).
T2 construct: gene PTGS2
T2 sequence (P35354 18-604): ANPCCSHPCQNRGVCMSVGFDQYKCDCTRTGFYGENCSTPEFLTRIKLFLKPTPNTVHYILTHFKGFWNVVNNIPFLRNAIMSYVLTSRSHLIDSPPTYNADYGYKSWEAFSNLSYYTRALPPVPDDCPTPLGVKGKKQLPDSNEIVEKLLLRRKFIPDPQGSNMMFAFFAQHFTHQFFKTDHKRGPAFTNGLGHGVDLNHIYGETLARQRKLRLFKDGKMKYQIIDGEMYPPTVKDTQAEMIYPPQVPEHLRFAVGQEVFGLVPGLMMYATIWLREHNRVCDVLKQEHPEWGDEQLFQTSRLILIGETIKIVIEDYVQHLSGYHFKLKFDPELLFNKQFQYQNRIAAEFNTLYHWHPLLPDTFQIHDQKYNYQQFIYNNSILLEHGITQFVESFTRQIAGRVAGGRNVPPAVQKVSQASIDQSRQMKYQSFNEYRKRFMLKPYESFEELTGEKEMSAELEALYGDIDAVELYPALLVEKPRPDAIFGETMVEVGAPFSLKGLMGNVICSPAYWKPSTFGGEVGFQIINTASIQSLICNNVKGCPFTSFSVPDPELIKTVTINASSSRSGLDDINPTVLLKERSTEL
The description is as above. It is filed as biochemical.

`C[C@@H]1CC[C@@]2(OC1)O[C@H]1C[C@H]3[C@@H]4CCC5=CC(=O)CC[C@]5(C)[C@H]4C[C@@H](O)[C@]3(C)[C@@]1(O)[C@@H]2C` [Asparacosin A]: the concentration for half-maximal inhibition (IC50) (commonly the point on the concentration scale where inhibition reaches its midpoint) in experiment [1] stood at 24.2 µM; in experiment [2] it was 0.6 µM.
